One may read the Ki as a dissociation constant, usually derived from enzyme kinetics or from competition with a known ligand. By IC50 is commonly meant the concentration needed to halve the response being measured. A low value points to inhibition by little substance.

Experimental findings from article PMC8471380 (Molecules, 2021) are described below.

Assay [1] addresses T1, human erythrocyte AChE (Homo sapiens, UniProt P22303).
T1 construct: commercial human erythrocyte AChE; purchased Sigma; host or cells: human erythrocytes
As to the kind of experiment: Kinetic study of AChE inhibition (Lineweaver-Burk). It counts as biochemical. The method, then: (§1) Kinetic studies were performed using commercial human erythrocyte AChE, equine serum BChE and porcine liver CES (Sigma, USA). The AChE and BChE activity was evaluated by Ellman’s method (λ = 412 nm) using 1 mM acetylthiocholine and 1 mM butyrylthiocholine (Sigma, St. Louis, MO, USA), respectively, as the substrate in 100 mM phosphate buffer, pH 7.5, 0.33 mM DTNB, 0.02 unit/mL of AChE or BChE at 25 °C as described in detail in [71]. Reagents blanks consisted of reaction mixtures without substrates. The CES activity was measured spectrophotometrically based on the release of 4-nitrophenol (λ = 405 nm) in the presence of 1 mM 4-nitrophenyl acetate as the substrate in 100 mM phosphate buffer, pH 8.0, at 25 °C as described in [71]. Final enzyme and substrate concentrations were 0.02 unit/mL and 1 mM, respectively. Assays were carried out with a blank containing all constituents except porcine CES to assess non-enzymatic hydrolysis. The measurements were performed on a FLUOstar OPTIMA multifunctional microplate reader (BMG LABTECH, Ortenberg, Germany). The compounds were dissolved in DMSO. The incubation mixture contained 2% (v/v) of the solvent. […] The sample of the appropriate enzyme was incubated with the test compound for 5 min, and then the residual enzymatic activity was determined. Each experiment was performed in triplicate. […]. […] Each experiment was performed in triplicate. The IC50 values were calculated with Origin 6.1 software.
(§2) The mechanisms of AChE and BChE inhibition were assessed by a thorough analysis of enzyme kinetics. The residual activity was determined after a 5-min incubation at 25 °C (for temperature equilibration) with three increasing concentrations of the inhibitor and six decreasing substrate concentrations.

Assay [2] deals with isolated rat liver mitochondria. As to the kind of experiment: Ca2+-induced mitochondrial swelling (MPT pore opening). It counts as biochemical. The settings on record: 30 µM compound; 12.5 µM Ca2+; 10 mM glutamate, 2 mM malate, 10 mM succinate; percentage relative to the reference compound. How it is done:
Experiments were performed using outbred male rats weighing 200–220 g. The animals were housed under standard vivarium conditions in a normal day/night cycle and had ad libitum access to water and food. The procedure of rat euthanasia using carbon dioxide (CO2) inhalation for mitochondria preparation is in compliance with the Guidelines for Animal Experiments, which were approved by the local bioethics committee of the IPAC RAS.
Rat liver mitochondria were isolated by conventional differential centrifugation. Membrane potential of rat liver mitochondria was measured using the potential-sensitive fluorescent probe Safranine A on a Victor 3 multilabel plate reader (Perkin Elmer, Waltham, MA, USA). The fluorescence was recorded at λex = 485 nm and λem = 590 nm. Mitochondrial swelling was measured by spectrophotometry in 96-well clear bottom plates on a Victor 3 microplate reader (Perkin Elmer, Waltham, MA, USA) at 620 nm; CaCl2 was added to induce mitochondrial swelling (MPT opening).

Assay [3] concerns the target T2, MK-801-binding (intrachannel) site of NMDA receptor (Rattus norvegicus, UniProt P35439).
T2 construct: from tissue; host or cells: rat hippocampus membranes
The assay is described as follows: Radioligand binding assay, [3H]MK-801 displacement.
Procedure: (§3) The effect of the test compounds on radioligand binding to NMDA receptors was evaluated by a modified method, as previously reported [83]. The following two radioligands were used: [^3H] […] A hippocampal membrane preparation for the radioligand binding assay was made as described previously [86, 87]. The obtained membrane pellet was resuspended in a working buffer (5 mM HEPES/4.5 mM Tris, pH 7.6 at 4 °C) in a ratio of 1:5 and stored in liquid nitrogen. The reaction mixture (the final volume was 0.5 mL) contained the working buffer (200 μL), a 50 nM radioligand solution (50 μL) and the membrane suspension (250 μL). The nonspecific binding was evaluated in the presence of 1 mM of the unlabeled ligand (50 μL).
(§4) For the binding assay, the reaction mixture was incubated at room temperature for 2 h. After the incubation, the samples were filtered through GF/B glass fiber filters (Whatman), washed with the working buffer, dried and transferred to scintillation vials. Then the scintillation fluid (5 mL), which is composed of diphenyloxazole (PPO) (4 g) and bis(5-phenyl-2-oxazolyl)benzene (POPOP) (0.2 g) in toluene (1 L) were added to the vials.
(§5) The effect of the test compounds on the binding of [^3H] […] The values of Ki were calculated according to a previously described method [88].

Another assay has as its target T3, PAS of EeAChE (Electrophorus electricus, UniProt O42275).
T3 construct: AChE from Electrophorus electricus (EeAChE, type VI-S, lyophilized powder); purchased Sigma-Aldrich type VI-S; host or cells: Electrophorus electricus tissue
It counts as binding. The settings on record: 20 µM compound; 7 µM EeAChE, 8 µM propidium iodide; mean ± SEM, n = 3.

In assay [4] the target is T4, equine serum BChE (Equus caballus, UniProt P81908).
T4 construct: equine serum BChE; purchased Sigma; host or cells: equine serum
The assay is described as follows: biochemical. The settings on record: 5 min incubation; mean ± SEM, n = 3.
Procedure: (§6) Reagents blanks consisted of reaction mixtures without substrates. […] Final enzyme and substrate concentrations were 0.02 unit/mL and 1 mM, respectively. Assays were carried out with a blank containing all constituents except porcine CES to assess non-enzymatic hydrolysis. The measurements were performed on a FLUOstar OPTIMA multifunctional microplate reader (BMG LABTECH, Ortenberg, Germany). The compounds were dissolved in DMSO. The incubation mixture contained 2% (v/v) of the solvent. […] The sample of the appropriate enzyme was incubated with the test compound for 5 min, and then the residual enzymatic activity was determined. Each experiment was performed in triplicate. […] Each experiment was performed in triplicate. The IC50 values were calculated with Origin 6.1 software.

The next assay deals with T5, porcine liver CES (Sus scrofa, UniProt Q29550).
T5 sequence (Q29550 19-566): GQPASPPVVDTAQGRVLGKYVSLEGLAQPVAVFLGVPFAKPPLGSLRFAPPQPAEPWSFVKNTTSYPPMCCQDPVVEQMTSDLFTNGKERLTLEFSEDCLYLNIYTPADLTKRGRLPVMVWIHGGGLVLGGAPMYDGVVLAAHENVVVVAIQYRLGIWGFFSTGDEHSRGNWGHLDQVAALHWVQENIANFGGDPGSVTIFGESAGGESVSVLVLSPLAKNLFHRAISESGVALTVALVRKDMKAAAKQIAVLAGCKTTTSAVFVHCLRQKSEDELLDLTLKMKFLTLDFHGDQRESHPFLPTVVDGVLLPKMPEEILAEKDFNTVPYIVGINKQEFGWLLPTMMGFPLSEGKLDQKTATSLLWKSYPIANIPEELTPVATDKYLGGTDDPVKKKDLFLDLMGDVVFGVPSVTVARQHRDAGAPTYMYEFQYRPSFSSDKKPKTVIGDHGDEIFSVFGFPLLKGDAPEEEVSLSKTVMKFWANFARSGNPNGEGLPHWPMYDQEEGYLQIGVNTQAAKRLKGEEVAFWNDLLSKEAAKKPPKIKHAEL
The assay is described as follows: CES inhibition, 4-nitrophenyl acetate hydrolysis. It counts as biochemical. The conditions noted are these: read-out: % of inhibition of CES with 20 µM concentration of the compound.

Assay [5] has as its target T1, human erythrocyte AChE. The assay is described as follows: biochemical. The conditions noted are these: mean ± SEM, n = 3; for IC50: 5 min incubation.
In assay [6] the target is T4, equine serum BChE. The assay is described as follows: Kinetic study of BChE inhibition (Lineweaver-Burk). It counts as biochemical. How it is done:
as §1, §2

The target in assay [7] is T6, ifenprodil-binding site of NMDA receptor (NR2B subunit) (Rattus norvegicus, UniProt P35439+Q00960).
T6 construct: from tissue; host or cells: rat hippocampus membranes
As to the kind of experiment: Radioligand binding assay, [3H]ifenprodil displacement.
Procedure: as §3, §4, §5

In assay [8] the test system is tubulin and microtubule-associated proteins (Tb+MAP). As to the kind of experiment: GTP-dependent Tb+MAP polymerization. The settings on record: 100 µM compound; 0.1 mM GTP, 37 °C. It counts as biochemical, mouse. An excerpt: A crude fraction of tubulin and microtubule-associated proteins (Tb+MAP) was isolated from mouse brain tissue by a polymerization–depolymerization method. The procedure of mouse euthanasia using cervical dislocation for Tb+MAP preparation is in compliance with the Guidelines for Animal Experiments, which were approved by the local bioethics committee of the IPAC RAS. The freshly dissected brain was immediately placed on ice, cleared of meninges and surface blood vessels, and washed with cold buffer A (50 mM Tris-HCl, pH 6.9 at 4 °C, 2 mM EGTA). The extracted brain tissue was homogenized under ice cooling in the same buffer using a Potter S homogenizer (Sartorius). The resulting homogenate was centrifuged at 10,000× g for 30 min on an Avanti 25 centrifuge (Beckman) using a JA-14 rotor for the precipitation of non-ruptured cells. The precipitate was discarded, and the supernatant was again centrifuged at 100,000× g for 60 min at 4 °C on an Optima MAX XP centrifuge (Beckman) using a MLA-50 rotor. The precipitate was again discarded. The protein concentration in the supernatant was determined by the Bradford assay using the Bio-Rad Protein Assay kit (Bio-Rad, Hercules, CA, USA) according to manufacturer’s instructions. The resulting supernatant was a cytosolic fraction enriched in microtubular proteins (Tb and MAP).
The Tb+MAP preparation was centrifuged at 5000× g for 10 min at 4 °C immediately before polymerization in order to remove denatured and aggregated protein molecules by precipitation. The Tb+MAP polymerization was performed at 37 °C in buffer A in the presence of 0.1 mM GTP after addition of 100 µM of test compound or the same volume of vehicle (DMSO). The protein concentration in the sample was 0.2 mg/mL. The polymerization kinetics was monitored on a Victor 3 or EnVision microplate reader (Perkin Elmer, USA) at 355 nm and the stabilized rate of polymerization after the first wave was measured (dA355/dt).

The mark [9] stands for this setting: Lineweaver-Burk double-reciprocal plots.

T3 sequence (O42275 24-633): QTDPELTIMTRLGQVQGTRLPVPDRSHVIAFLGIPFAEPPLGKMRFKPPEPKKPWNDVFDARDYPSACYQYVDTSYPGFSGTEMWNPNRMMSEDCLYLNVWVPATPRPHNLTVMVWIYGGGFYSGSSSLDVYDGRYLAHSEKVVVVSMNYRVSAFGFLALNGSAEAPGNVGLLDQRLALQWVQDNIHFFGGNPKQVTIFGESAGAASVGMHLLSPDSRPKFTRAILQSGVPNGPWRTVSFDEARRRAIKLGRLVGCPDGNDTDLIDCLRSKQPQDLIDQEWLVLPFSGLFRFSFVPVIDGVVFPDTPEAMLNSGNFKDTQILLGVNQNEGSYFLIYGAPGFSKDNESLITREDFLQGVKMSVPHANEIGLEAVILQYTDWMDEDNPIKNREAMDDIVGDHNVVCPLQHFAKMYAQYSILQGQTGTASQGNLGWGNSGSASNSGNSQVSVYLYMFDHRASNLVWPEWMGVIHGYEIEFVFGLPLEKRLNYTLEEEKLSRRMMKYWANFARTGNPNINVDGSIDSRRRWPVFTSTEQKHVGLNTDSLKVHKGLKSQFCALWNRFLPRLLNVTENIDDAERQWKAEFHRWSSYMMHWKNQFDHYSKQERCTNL
T6 sequence (Q00960 27-1482, other chains not shown): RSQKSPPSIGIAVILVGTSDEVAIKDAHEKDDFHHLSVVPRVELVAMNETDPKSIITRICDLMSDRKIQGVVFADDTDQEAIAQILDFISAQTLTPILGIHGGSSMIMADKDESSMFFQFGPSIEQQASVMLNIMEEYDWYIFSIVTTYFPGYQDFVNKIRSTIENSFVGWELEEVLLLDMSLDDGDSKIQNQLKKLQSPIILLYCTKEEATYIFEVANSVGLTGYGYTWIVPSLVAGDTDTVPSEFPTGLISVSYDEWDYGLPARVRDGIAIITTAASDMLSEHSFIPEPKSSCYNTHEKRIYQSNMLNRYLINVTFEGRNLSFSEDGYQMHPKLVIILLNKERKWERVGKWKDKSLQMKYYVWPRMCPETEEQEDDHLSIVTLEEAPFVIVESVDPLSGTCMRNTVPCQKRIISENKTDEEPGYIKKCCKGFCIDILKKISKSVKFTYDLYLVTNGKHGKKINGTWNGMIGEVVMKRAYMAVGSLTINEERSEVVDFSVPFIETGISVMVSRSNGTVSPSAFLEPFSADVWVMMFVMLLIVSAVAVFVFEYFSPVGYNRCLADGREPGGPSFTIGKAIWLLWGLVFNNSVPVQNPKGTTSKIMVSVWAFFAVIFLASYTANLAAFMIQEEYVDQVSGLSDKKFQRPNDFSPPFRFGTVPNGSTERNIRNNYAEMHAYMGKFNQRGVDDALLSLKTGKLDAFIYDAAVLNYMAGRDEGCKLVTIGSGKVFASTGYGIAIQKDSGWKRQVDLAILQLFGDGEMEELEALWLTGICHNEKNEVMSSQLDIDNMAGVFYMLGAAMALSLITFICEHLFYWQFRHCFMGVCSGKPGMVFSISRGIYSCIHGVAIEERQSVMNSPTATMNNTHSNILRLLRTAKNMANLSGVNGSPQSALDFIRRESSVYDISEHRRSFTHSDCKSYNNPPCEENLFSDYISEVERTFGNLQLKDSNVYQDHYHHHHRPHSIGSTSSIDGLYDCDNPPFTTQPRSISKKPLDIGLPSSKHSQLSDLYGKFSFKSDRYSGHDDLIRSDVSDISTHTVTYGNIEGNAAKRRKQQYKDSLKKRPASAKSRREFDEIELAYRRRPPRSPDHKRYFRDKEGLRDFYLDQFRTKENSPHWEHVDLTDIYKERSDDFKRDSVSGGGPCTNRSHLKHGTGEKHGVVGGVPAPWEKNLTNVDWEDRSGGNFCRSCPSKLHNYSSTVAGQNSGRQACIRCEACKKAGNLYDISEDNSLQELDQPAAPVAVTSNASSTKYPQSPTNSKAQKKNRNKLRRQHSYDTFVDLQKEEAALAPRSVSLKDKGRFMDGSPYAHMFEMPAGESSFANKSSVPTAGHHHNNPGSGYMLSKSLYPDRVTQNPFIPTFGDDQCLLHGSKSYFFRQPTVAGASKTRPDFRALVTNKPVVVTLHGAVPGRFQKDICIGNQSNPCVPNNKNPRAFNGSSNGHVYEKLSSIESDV
T1 sequence (P22303 32-617 isoform P22303-2 limits assumed): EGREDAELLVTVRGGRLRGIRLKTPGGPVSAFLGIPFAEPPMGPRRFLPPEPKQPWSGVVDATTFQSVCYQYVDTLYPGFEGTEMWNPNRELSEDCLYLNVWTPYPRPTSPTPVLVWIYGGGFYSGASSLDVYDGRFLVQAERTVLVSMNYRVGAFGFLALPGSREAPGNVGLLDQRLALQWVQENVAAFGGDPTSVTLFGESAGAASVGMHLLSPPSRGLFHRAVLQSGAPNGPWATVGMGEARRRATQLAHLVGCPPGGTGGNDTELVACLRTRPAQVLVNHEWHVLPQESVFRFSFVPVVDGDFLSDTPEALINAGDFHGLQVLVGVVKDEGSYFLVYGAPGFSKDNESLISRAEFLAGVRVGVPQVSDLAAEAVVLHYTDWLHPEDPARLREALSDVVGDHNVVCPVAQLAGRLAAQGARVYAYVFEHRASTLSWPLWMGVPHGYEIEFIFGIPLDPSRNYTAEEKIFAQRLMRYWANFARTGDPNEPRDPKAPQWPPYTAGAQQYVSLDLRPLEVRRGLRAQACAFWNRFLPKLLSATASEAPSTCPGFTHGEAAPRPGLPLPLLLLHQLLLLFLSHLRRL
T4 sequence (P81908 whole entry): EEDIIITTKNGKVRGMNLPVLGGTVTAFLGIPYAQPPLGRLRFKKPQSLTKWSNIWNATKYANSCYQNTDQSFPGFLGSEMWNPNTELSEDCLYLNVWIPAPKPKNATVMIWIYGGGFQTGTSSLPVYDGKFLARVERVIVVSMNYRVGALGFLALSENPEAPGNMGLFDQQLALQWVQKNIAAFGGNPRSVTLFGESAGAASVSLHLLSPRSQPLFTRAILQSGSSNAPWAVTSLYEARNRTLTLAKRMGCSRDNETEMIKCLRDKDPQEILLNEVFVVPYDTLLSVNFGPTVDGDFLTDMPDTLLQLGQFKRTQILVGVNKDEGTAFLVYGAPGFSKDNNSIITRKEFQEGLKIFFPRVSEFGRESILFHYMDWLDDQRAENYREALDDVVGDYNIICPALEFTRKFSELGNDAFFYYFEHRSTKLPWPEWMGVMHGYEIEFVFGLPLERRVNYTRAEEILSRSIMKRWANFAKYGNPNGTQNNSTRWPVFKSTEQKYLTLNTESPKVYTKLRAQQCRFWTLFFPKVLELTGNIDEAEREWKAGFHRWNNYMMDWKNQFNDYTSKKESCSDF
Procedure for PAS of EeAChE: The compounds were evaluated as potential inhibitors of proaggregation activity of AChE by measuring the displacement of propidium iodide from the PAS of the enzyme [53] using a fluorescence method [28]. AChE from Electrophorus electricus (EeAChE, type VI-S, lyophilized powder, Sigma-Aldrich, St. Louis, MO, USA) was used for consistency with our previous studies [8, 13, 63, 74]. The fluorescence intensity of propidium iodide bound to AChE increases several-fold. A decrease in the fluorescence intensity in the presence of the test compounds is indicative of their ability to bind to the AChE PAS and, correspondingly, to inhibit β-amyloid aggregation.
EeAChE (7 µM) was incubated with 20 µM of the test compound in 1 mM Tris-HCl buffer, pH 8.0, at 25 °C for 15 min. Then a solution of propidium iodide was added (final concentration 8 µM), the mixture was incubated for 15 min, and the fluorescence spectrum was recorded (excitation at 530 nm and emission at 600 nm). […] The blank contained propidium iodide at the same concentration in 1 mM Tris-HCl buffer, pH 8.0 at 25 °C. The measurements were performed in triplicate on a FLUOstar OPTIMA multifunctional microplate reader.
The degree of displacement of propidium iodide from the PAS of AChE (% displacement) was calculated by the equation:% displacement = 100 − (IFAChE + Propidium + inhibitor/IFAChE + Propidium) × 100, where IFAChE + Propidium is the fluorescence intensity of propidium iodide bound to EeAChE in the absence of the test compound (taken as 100%), and IFAChE + Propidium + inhibitor is the fluorescence intensity of propidium iodide bound to EeAChE in the presence of the test compound.
Procedure for porcine liver CES: as §6

`CN1CCc2c(c3cc(F)ccc3n2CCNC23CC4CC(C)(CC(C)(C4)C2)C3)C1.Cl.Cl` [Compound 4c, N-(2-(8-Fluoro-2-methyl-3,4-dihydro-1H-pyrido[4,3-b]indol-5(2H)-yl)ethyl)-3,5-dimethyladamantane-1-amine dihydrochloride]: on human erythrocyte AChE [1] (Lineweaver-Burk analysis), the “αKi (non-competitive component), AChE” value was 45.5 ± 3.8 µM. Also, the Ki at human erythrocyte AChE [1] (Lineweaver-Burk analysis, read-out: Ki (competitive component), AChE) is 13.7 ± 0.02 µM; in assay [3] it was 4.7 ± 0.5 µM; at equine serum BChE [6] (Lineweaver-Burk analysis, read-out: Ki (competitive component), BChE), 230 ± 20 nM; in [7], 3.1 ± 0.3 µM. In addition, the “Type of AChE inhibition” value at human erythrocyte AChE [1] (setting [9]) was “mixed type of inhibition”. Moreover, the “Rate of Ca2+-Induced Mitochondrial Swelling (dA620/dt)” value (shortened to “Rate … (dA620/dt)”) in [2] came out at 31 ± 10%. For the same molecule, the “% of Displacement of Propidium Iodide from the PAS of EeAChE” value (shortened to “% of Displacement of Propidium Iodide”) on PAS of EeAChE was 13.1 ± 1.0%. Moreover, the values for the concentration for half-maximal inhibition (IC50) against equine serum BChE [4] and at human erythrocyte AChE [5] were 0.729 ± 0.011 µM and 39.7 ± 3.2 µM, respectively. At porcine liver CES, the inhibition at 20 µM amounted to 6.9 ± 0.4%. The “αKi (non-competitive component), BChE” value at equine serum BChE [6] (Lineweaver-Burk analysis) was determined as 0.70 ± 0.01 µM. Moreover, the “Type of BChE inhibition” value on equine serum BChE [6] (setting [9]) is given as “mixed type of inhibition”. For the same molecule, the “Rate of Tb+MAP Polymerization (dA355/dt)” value in assay [8] turned out to be 166 ± 11%.

Turning to `Cc1ccc2c(c1)c1c(n2CC(=O)NC23CC4CC(CC(C4)C2)C3)CCN(C)C1.Cl` [Compound 8e, N-(Adamantan-1-yl)-2-(2,8-dimethyl-3,4-dihydro-1H-pyrido[4,3-b]indol-5(2H)-yl)acetamide hydrochloride], in assay [2], the “Rate … (dA620/dt)” value is on record as 49 ± 12%. Also, the Ki in assay [3] worked out at 72.7 ± 6.6 µM; in assay [7] it was 105 ± 10 µM. For the same molecule, the “% of Displacement of Propidium Iodide” value at PAS of EeAChE came to 1.2 ± 0.1%. The same molecule yielded an IC50 at equine serum BChE [4] of 43.2 ± 2.9 µM. For the same molecule, the inhibition at 20 µM at porcine liver CES is 9.9 ± 1.5%; on human erythrocyte AChE [5] (read-out: % of inhibition of AChE with 20 µM concentration of the compound, 20 µM compound) it was 13.5 ± 0.9%. Further, the “Rate of Tb+MAP Polymerization (dA355/dt)” value in assay [8] came out at 133 ± 28%.

As for `CN1CCc2c(c3ccccc3n2CCNC23CC4CC(CC(C4)C2)C3)C1.Cl.Cl` [Compound 4d, N-(2-(2-Methyl-3,4-dihydro-1H-pyrido[4,3-b]indol-5(2H)-yl)ethyl)adamantane-1-amine dihydrochloride], in assay [2], the “Rate … (dA620/dt)” value came out at 35 ± 13%. Moreover, the figures for the Ki in assay [3] and in assay [7] were 3.3 ± 0.3 µM and 4.4 ± 0.3 µM, respectively. Also, at PAS of EeAChE, the “% of Displacement of Propidium Iodide” value is reported as 10.1 ± 0.9%. For the same molecule, the IC50 is 2.48 ± 0.22 µM against equine serum BChE [4] and 112 ± 5 µM against human erythrocyte AChE [5]. In addition, the inhibition at 20 µM at porcine liver CES is 2.9 ± 0.8%. In addition, the “Rate of Tb+MAP Polymerization (dA355/dt)” value in [8] is recorded as 162 ± 19%.

As to `Cc1ccc2c(c1)c1c(n2CCNC23CC4CC(C)(CC(C)(C4)C2)C3)CCN(C)C1.Cl.Cl` [Compound 4b, N-(2-(2,8-Dimethyl-3,4-dihydro-1H-pyrido[4,3-b]indol-5(2H)-yl)ethyl)-3,5-dimethyladamantane-1-amine dihydrochloride], the “Rate … (dA620/dt)” value in assay [2] was found to be 39 ± 7%. In addition, the figures for the Ki in [3] and in assay [7] were 7.9 ± 0.8 µM and 8.8 ± 1 µM, respectively. Moreover, the “% of Displacement of Propidium Iodide” value at PAS of EeAChE is 14.7 ± 0.9%. Further, the concentration for half-maximal inhibition (IC50) against equine serum BChE [4] was determined as 5.07 ± 0.09 µM; against human erythrocyte AChE [5] it was 50.3 ± 3.4 µM. In addition, the inhibition at 20 µM on porcine liver CES stood at 10.4 ± 0.5%. In addition, in assay [8], the “Rate of Tb+MAP Polymerization (dA355/dt)” value came out at 153 ± 33%.
